Measurements from patent US5872148A, “Compositions useful as a cannabinoid receptor probe” (University of Connecticut, priority 1995, dated 1999).

How the values were obtained:
cannabinoid receptor [1] = target: T1, cannabinoid receptor (Rattus norvegicus, UniProt P20272); experiment: Receptor inactivation test (equilibration / photoirradiation), rat forebrain membranes; type: binding; conditions: 1 hour at 30° C., azide: UV irradiated 13 minutes, washed
T1 construct: membrane preparations from rat forebrains; from tissue; host or cells: rat forebrain membranes
Method: The ability of affinity ligands to inactivate the cannabinoid receptor in vitro was tested through photoirradiation experiments. All procedures involving affinity ligands were conducted in the dark using only a safety light. Rat forebrain membranes (1-3 mg) in 20 mM Tris Buffer, 3 mM MgCl2, and 1 mM EDTA (pH 7.4) were incubated with an appropriate amount of either 11-hydroxy-7'-azido-1',1'-dimethylheptyl-Δ^8 -THC or 11-hydroxy-7'-isothiocyanate-1',1'-dimethyl-heptyl-Δ^8 -THC, in a six-well culture plate for 1 hour at 30° C. At the end of the equilibration membranes incubated with 11-hydroxy-7'-azido-1',1'-dimethylheptyl-Δ^8 -THC were placed on ice and irradiated for 13 minutes with UV light. Membranes incubated with either of the two compounds were then pelleted using a bench top microcentrifuge. The pellets were subsequently washed at least three times with the working buffer containing 1 mg/mL bovine serum albumin, allowing at least 10 minutes between each wash for equilibration. The final pellets were resuspended in the working buffer and assayed for cannabinoid binding activity by the method of Devane et al., referenced above.

cannabinoid receptor [2] = target: T1, cannabinoid receptor; experiment: Receptor binding assay, [^3 H]CP-55,940, rat forebrain membrane, Tris buffer with bovine serum albumin; conditions: for affinity for the cannabinoid receptor (in words): demonstrated by IC50 values; for IC50: rat forebrain membrane, 0.8 nM [^3 H]CP-55,940, 0.1% bovine serum albumin, pH 7.4, 1 hour at 30° C.
Method: The affinity of compositions of this invention for cannabinoid binding sites was tested by using membrane preparations from rat forebrains. A composition is tested by incubating various concentrations of the composition with approximately 50 μg of rat forebrain membrane, 20 mM Tris Buffer, 3 mM MgCl2, 1 mM EDTA (pH, 7.4) containing 0.1% bovine serum albumin, and 0.8 nM of the cannabinoid radioligand [^3 H]CP-55,940, (Dupont-NEN). Assays were incubated in Regisil-treated test tubes for 1 hour at 30° C. and were subsequently filtered on GF/C filters using a Brandell M-24 Cell Harvester. Following four washes with 20 mM Tris buffer (pH 7.4) and 3 mM MgCl2, the GF/C filters were collected, and shaken for 1 hour with 2 mL of 0.1% SDS. Ligand binding was counted on a Beckman liquid scintillation counter.
Non-specific binding was assessed from tubes containing 250 nM desacetyllevo-nantradol by the method described in W. A. Devane et al., Determination and Characterization of a Cannabinoid Receptor in Rat Brain, Mol. Pharmacol., 34:605 (1988). Data were collected from 3 experiments performed on 11-hydroxy-7'-azido-1',1'-dimethylheptyl-Δ^8 -THC and on 11-hydroxy-7'-isothiocyanate-1',1'-dimethyl-heptyl-Δ^8 -THC, each.

[3] = system: male ICR (Institute of Cancer Research) mice; experiment: Antinociceptive activity in the mouse tail-flick assay; type: in vivo; conditions: intravenous injection; for ED50: Mus musculus, read-out: Antinociception MPE, potency (ED50 value)
Method: (§1) 5'-azido-THC was evaluated in vivo and compared to the parent compound (-)-Δ^8 -THC for cannabimimetic activity. Both analogs were tested in male ICR (Institute of Cancer Research) mice (Harlan, Frederick, Md.) following intravenous injection, for their abilities to produce sedation (decreased locomotor activity) and catalepsy (induction of ring immobility) as measures of drug-induced behavioral effects. They were also evaluated in the same mice for their abilities to produce hypothermia and antinociceptive activity in the mouse tail-flick assay.
(§2) The results obtained are shown in Table I. Dose-response data were analyzed statistically by ANOVA, and the potency (ED50 value) and efficacy (maximum effect) were determined. The maximum effects given represent percent inhibition (of locomotor activity), ° C. (of hypothermia), percent immobility (of catalepsy) and percent MPE (maximum possible effect of latency of antiociception procedure).
(§3) This evaluation was performed by methods described in M. D. Compton et al., J. Med. Chem., 34:3310 (1991), A. Makriyannis et al., Life Sci., 47:2173 (1990), and A. Charalandous et al., Pharmacol. Biochem. Behav., 40:509 (1991).

cannabinoid receptor [4] = target: T1, cannabinoid receptor; experiment: Alternate receptor inactivation test (equilibration and UV irradiation), rat forebrain membrane; type: binding; conditions: 1 hour at 30° C., shortwave UV light
Method: In an alternate receptor inactivation test, 0.5-3 mg of rat forebrain membrane was incubated with (-)5'-azido-Δ^8 -THC, previously resuspended in 5% β-cyclodextrin in 12-well tissue culture plates containing 1 mL of 20 mM potassium diethyl malonate (pH 7.4) and 0.01% β-cyclodextrin. The assay was incubated for 1 hour at 30° C. and then was placed on ice and irradiated for 13 minutes with shortwave UV light from a UVGL-25 mineralight at 10 cm distance […].

cannabinoid receptor [5] = target: T1, cannabinoid receptor; experiment: Alternate affinity test, [^3 H]CP-55,940, rat forebrain membrane, potassium diethyl malonate buffer with β-cyclodextrin; type: binding; conditions: 100 fmol/mL [^3 H]CP-55,940, 0.01% β-cyclodextrin, pH 7.4, 1 hour at 30° C.
Method: An alternate affinity test used approximately 30 μg of rat forebrain membrane in a buffer containing 20 mM potassium diethyl malonate (pH 7.4), 3 mM MgCl2, 0.01% β-cyclodextrin, and 100 fmol/mL [^3 H]CP-55,940, (Dupont-NEN). The assays were incubated in Regisil-treated test tubes for 1 hour at 30° C. and were subsequently filtered on GF/C filters. Just prior to filtration, 200 μL of 50 mg/mL bovine serum albumin is added. Following filtration, ligand binding was counted on a Beckman liquid scintillation counter.
Non-specific binding was assessed from tubes containing 100 nM desacetyllevo-nantradol by the method described in W. A. Devane et al., Determination and Characterization of a Cannabinoid Receptor in Rat Brain, Mol. Pharmacol., 34:605 (1988).

[6] = system: male ICR (Institute of Cancer Research) mice; experiment: Catalepsy (induction of ring immobility) in mice; type: in vivo; conditions: for ED50: Mus musculus, read-out: Catalepsy Immobility, potency (ED50 value); for ED50 / Catalepsy Immobility, efficacy (maximum effect), percent immobility: intravenous injection, mice
Method: as §1, §2, §3

[7] = system: male ICR (Institute of Cancer Research) mice; experiment: Hypothermia in mice; type: in vivo; conditions: for ED50: Mus musculus, read-out: Hypothermia (Δtemperature), potency (ED50 value); for ED50 / Hypothermia (Δtemperature), efficacy (maximum effect): intravenous injection, mice
Method: as §1, §2, §3

[8] = system: male ICR (Institute of Cancer Research) mice; experiment: Sedation (decreased locomotor activity) in mice; type: in vivo; conditions: intravenous injection; for ED50: Mus musculus, read-out: Locomotion Inhibition, potency (ED50 value)
Method: as §1, §2, §3

[9] = milligram/kilogram basis, vs (-)-Δ^8 -THC

T1 sequence (P20272 whole entry): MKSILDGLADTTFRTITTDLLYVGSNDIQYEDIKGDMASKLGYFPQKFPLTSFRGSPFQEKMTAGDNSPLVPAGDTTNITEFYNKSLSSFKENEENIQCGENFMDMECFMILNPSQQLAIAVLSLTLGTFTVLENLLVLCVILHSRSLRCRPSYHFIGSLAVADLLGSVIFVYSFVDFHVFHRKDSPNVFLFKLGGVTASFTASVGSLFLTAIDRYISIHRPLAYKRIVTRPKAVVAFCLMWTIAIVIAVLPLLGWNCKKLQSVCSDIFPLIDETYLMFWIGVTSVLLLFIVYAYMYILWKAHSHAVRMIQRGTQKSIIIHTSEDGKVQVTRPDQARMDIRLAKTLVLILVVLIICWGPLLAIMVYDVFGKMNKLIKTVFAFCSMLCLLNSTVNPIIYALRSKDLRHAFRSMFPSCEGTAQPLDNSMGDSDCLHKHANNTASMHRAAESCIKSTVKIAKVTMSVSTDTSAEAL

Compound | ability to inactivate the cannabinoid receptor in vitro (cannabinoid receptor [1]) | affinity for the cannabinoid receptor (in words) (cannabinoid receptor [2]) | IC50 (cannabinoid receptor [2]) [nM] | ED50 [3] [mg/kg] | Antinociception, efficacy (maximum effect), percent MPE (maximum possible effect) [3] [%] | irreversible inactivation of the receptors (cannabinoid receptor [4]) | specific receptor binding in equilibrated and irradiated membranes (cannabinoid receptor [4]) | IC50 (cannabinoid receptor [5]) [nM] | ED50 [6] [mg/kg] | Catalepsy Immobility, efficacy (maximum effect), percent immobility [6] [%] | times more potent than the parent compound (catalepsy) [6, 9] [times] | ED50 [7] [mg/kg] | Hypothermia (Δtemperature), efficacy (maximum effect) [7] [°C] | times more potent than the parent compound (hypothermia) [7, 9] [times] | ED50 [8] [mg/kg] | Locomotion Inhibition, efficacy (maximum effect), percent inhibition [8] [%]
CC(C)(CCCCCCN=[N+]=[N-])c1cc(O)c2c(c1)OC(C)(C)[C@@H]1CC=C(CO)C[C@@H]21 [11-hydroxy-7'-azido-1',1'-dimethylheptyl-Δ^8 -THC] | completely inactivate the cannabinoid receptor | high affinity | 2.5 | – | – | – | – | – | – | – | – | – | – | – | – | –
CC(C)(CCCCCCN=C=S)c1cc(O)c2c(c1)OC(C)(C)[C@@H]1CC=C(CO)C[C@@H]21 [11-hydroxy-7'-isothiocyanate-1',1'-dimethylheptyl-Δ^8 -THC] | completely inactivate the cannabinoid receptor | high affinity | 1.5 | – | – | – | – | – | – | – | – | – | – | – | – | –
CC1=CC[C@@H]2[C@@H](C1)c1c(O)cc(CCCCCN=[N+]=[N-])cc1OC2(C)C [(-)5'-azido-Δ^8 -THC] | – | – | – | 0.1 | 100 | did not irreversibly inactivate the receptors | no specific receptor binding was observed | 31 | 0.8 | 57 | 6.5 | 0.8 | -3.8 | 19 | 0.2 | 73
CCCCCc1cc(O)c2c(c1)OC(C)(C)[C@@H]1CC=C(C)C[C@@H]21 [(-)-Δ^8 -THC, reference compound] | – | – | – | 1.5 | 100 | – | – | – | 5.2 | 58 | – | 15.5 | -5.9 | – | 1.9 | 79
